According to PubChem BioAssay AID179 (DTP/NCI, 2004):
Where “and” joins values, the source holds several entries; their conditions need not be identical. Equal values may be shown once. Calls of active or inactive are those of the source.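 How the source made its calls: active means compounds giving half or more protection of infected cells from virus-caused growth loss, again on retest; inactive means the rest.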 Where a SMILES comes first, the peptide text is derived from it. [ ]: non-standard residue; d: D form. Phe(4-NO2) = N[CH](Cc1ccc([N+](=O)[O-])cc1)C(=O)O

Test system: CEM cells HIV-1 protection, formazan growth assay
Assay: NCI AIDS Antiviral Assay
Conditions: for IC50: measured here: growth of uninfected CEM cells
Outline: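 Screen of anti-HIV-1 activity in human CEM cells using a formazan-based growth measurement at five drug concentrations. Hits with 50% or greater protection were repeated, and confirmation required reproducible complete protection.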

| Compound | EC50 [µM] | IC50 | outcome |
| --- | --- | --- | --- |
| COC(=O)Nc1nc2cc(OC)c(OC)cc2c(=O)[nH]1 | > 200 | 8.71 µM |  |
| C1=NC(N(Cc2ccccc2)Cc2ccccc2)N(Cc2ccccc2)N1 (stereo not given) | > 52.5 | 32.4 µM |  |
| COC/N=C(\NC#N)NCOC | > 525 | > 525 µM |  |
| COc1ccc(N2C(=O)C3c4[nH]c5ccccc5c4C4CCCCCCCCCCC4C3C2=O)cc1 (stereo not given) | > 5.62 | > 5.62 µM |  |
| Cc1ccc(S(=O)(=O)N/N=C/C(=C/c2ccc(Cl)cc2)CC(/C=N/NS(=O)(=O)c2ccc(C)cc2)=C\c2ccc(Cl)cc2)cc1 | > 200 | 3.89 µM |  |
| COc1ccc(C(=O)Nc2sc(SC)nc2C(N)=O)cc1 | > 200 | > 200 µM |  |
| COc1cc2c(c(OC)c1)C(C)=NC(C)C2 (stereo not given) | > 200 | 141 µM |  |
| O=C(CC1=Nc2nnc(CCCCCCCc3nnc4n3C(=O)C(CC(=O)c3ccccc3)=N4)n2C1=O)c1ccccc1 | > 1.82 | > 1.82 µM |  |
| Nc1ccc(SCc2ccc(C(=O)O)cc2)cc1 | > 28.2 | > 28.2 µM |  |
| Clc1ccc2nc(-c3ccccc3)nc(Cl)c2c1 |  |  | inactive |
| CCOP(=O)(OCC)/C(C#N)=C/c1ccccc1 | > 676 | > 676 µM |  |
| C=C1SC(=Nc2cccc(OC)c2)N(c2nc(Cl)nc(Cl)n2)C12CCCCC2 | > 155 | 52.5 µM |  |
| COc1ccc2nccc(NCCCN3CCN(CCCNc4ccnc5ccc(OC)cc45)CC3)c2c1 | > 0.537 | 0.105 µM |  |
| Nc1c(N=Nc2ccc([N+](=O)[O-])cc2)c(S(=O)(=O)O)cc2cc(S(=O)(=O)O)c(N=Nc3ccccc3)c(O)c12 | > 151 | > 151 µM |  |
| CC1(C)CC2=NO[Se]3=C2C(=NO3)C1 | > 3.55 | 0.191 µM |  |
| O=C(NC1CCCCC1)N1CCNC1=S | > 200 | > 200 µM |  |
| CCOC(=O)c1c(-c2ccccc2)c(C)cn1C | > 200 | 120 µM |  |
| CSc1nc2c(=S)[nH]c(=S)[nH]c2s1 | > 105 | > 105 µM |  |
| CS/C(c1ccccc1)=[N+](/C)[O-] | > 813 | 589 µM |  |
| CC(C)N(C(=O)C12C3C4C5C3C1(C(=O)N(C(C)C)C(C)C)C5C42)C(C)C (stereo not given) | > 100 | > 100 µM |  |
| CCOC(=O)C1(C(=O)OCC)OC(=O)NC2=C1CCCC2 | > 832 | 145 µM |  |
| Cc1[nH]c(=O)[nH]c(=O)c1Cl |  |  | inactive |
| O=S(=O)(c1ccccc1)C(Cl)c1cccc(Cl)c1 (stereo not given) | > 63.1 | > 63.1 µM |  |

| Compound | EC50 [µM] | IC50 | outcome |
| --- | --- | --- | --- |
| CN1C/C(=C\c2cccs2)C2=NN(C)C(c3cccs3)C2C1 (stereo not given) | > 200 | > 200 µM |  |
| CCOC(=O)CNc1c(OCc2ccccc2)c(=O)c1=O | > 200 | > 200 µM |  |
| CN1c2ccccc2Oc2ccc3ccccc3c21 | > 200 | 135 µM |  |
| COc1cc(/C=C(\NC(=O)c2ccccc2)c2nc3[nH]c(=S)[nH]c(=O)c3[nH]2)cc(OC)c1OC |  |  | inactive |
| CC(NC(=O)C(Cc1ccc([N+](=O)[O-])cc1)NC(=O)C(N)CCCCN)C(=O)NC(Cc1ccc([N+](=O)[O-])cc1)C(N)=O (stereo not given) (H-K[Phe(4-NO2)]A[Phe(4-NO2)]-NH2; configuration not given here) | > 200 | > 200 µM |  |
| COC(=O)CN1CCSC1=NC#N |  |  | inactive |
| c1cc2[nH]snc2c2cncc12 | > 200 | 11.2 µM |  |
| COc1cc(CS(=O)c2ccc(O)cc2)cc(OC)c1OC (stereo not given) | > 200 | > 200 µM |  |
| C=CC[C@]12CC(=O)OC(C=CC13OCCO3)C2 | > 200 | > 200 µM |  |
| O=[N+]([O-])c1ccc(-c2csc(=[N+]3CCCCC3)s2)cc1 |  |  | inactive |
| O=C(NNC(=O)c1cccc(C(=O)NNC(=O)c2ccc(Cl)c(Cl)c2)n1)c1ccc(Cl)c(Cl)c1 | > 200 | 1.07 µM |  |
| CC12CCC(=O)N1c1cc([N+](=O)[O-])ccc1N2 (stereo not given) |  |  | inactive |
| C[N+](C)(CCO)CCN1c2ccccc2Sc2ccccc21 | > 200 | > 200 µM |  |
| CN(C)/C=N/c1cc(=O)n(C)c(=O)n1C |  |  | inactive |
| CCOC(=O)C(NC(=O)c1cccc(Cl)c1)(Nc1ccc(S(=O)(=O)Nc2cc(C)on2)cc1)C(F)(F)F (stereo not given) | > 200 | 155 µM |  |
| Oc1cc(C2OCCCO2)cc(O)c1O | > 229 | 191 µM |  |
| Cc1c([O-])c([O-])c(C)c2c1OCO2.[C-]#[O+].[C-]#[O+].[C-]#[O+].[Re].c1ccc([PH+](c2ccccc2)c2ccccc2)cc1 | > 15.1 | 6.46 µM |  |
| O=P1(c2ccccc2)CCCCC1 | 0.0631 | > 200 µM |  |
| COc1cc(O)c2c(c1)O[C@H](C)[C@H](C)C2=O | 100 | > 200 µM |  |
| O=C1OC(c2ccccc2)(c2ccccc2)c2ccc3ccc(F)cc3c21 |  |  | inactive |
| CON(C)C(=O)[C@H]1C[C@@]1(C)CO | > 200 | > 200 µM |  |
| CCCC(=O)Nc1cc(C)c(NC(=O)CN(CC)CC)c(C)c1 | > 200 | > 200 µM |  |
| COC(=O)CC(SCCO)SCCO | > 200 | > 200 µM |  |

| Compound | EC50 [µM] | IC50 | outcome |
| --- | --- | --- | --- |
| O=C1CCCCCN1c1ccccn1 | > 1320 | > 1320 µM |  |
| CC(=O)O[C@H]1CCC(C)=CCC[C@@]2(C)C(CC[C@@H]2[C@@H](C)/C=C/C(C)C)c2ccc(cc2C(=O)O)C1 (stereo not given in full) |  |  | inactive |
| S=C(Nc1ccccn1)Nc1ccccn1 | > 200 | 195 µM |  |
| COC1C(O)C(n2ccc(=O)[nH]c2=O)OC1[C@@H](O[C@H]1OC(C(=O)NC2CCCCNC2=O)=CC(O)C1O)C(N)=O (stereo not given in full) |  |  | inactive |
| C/C(=N/NC(=O)C(N)=O)C(CC(C(=O)Nc1ccccc1C)/C(C)=N\NC(=O)C(N)=O)C(=O)Nc1ccccc1C (stereo not given) | > 158 | 79.4 µM |  |
| Nc1nc(Cl)c(Cl)nc1C(=O)O | > 200 | 117 µM |  |
| CC(=O)OC1(C#N)CC2OC1C1N=NN(C(=O)OC(C)(C)C)C21 (stereo not given) | > 155 | 14.8 µM |  |
| CCCCC1Sc2cc(OC)cc(N)c2NC1=O (stereo not given) | > 200 | 158 µM |  |
| CC/C(Cl)=N\OC(=O)Nc1ccccc1OC(F)(F)F | > 20 | 3.16 µM |  |
| COC(=O)c1oc([N+](=O)[O-])c(-c2ccccc2)c1-c1ccccc1 | > 57.5 | > 57.5 µM |  |
| CSc1nnc(N(C(C)C)C(C)C)c2nc[nH]c12 | > 200 | > 200 µM |  |
| COc1cccc(/C=N/[N-]C(=O)c2ccncc2)c1[O-].[Co+2].[OH3+] | > 20.9 | > 20.9 µM |  |
| O=C(Nc1ccc(F)cc1)C(=O)C(C(=O)c1ccccc1F)C1OC(=O)c2ccccc21 (stereo not given) | > 302 | 18.2 µM |  |
| CCc1cccc(NC(=O)c2cc(/C=C/c3ccccc3)[nH]c(=S)n2)c1 | > 347 | > 347 µM |  |
| Cc1ccc2[nH]c3nc4cc(C)c(C)cc4nc3c2c1 | > 7.24 | > 7.24 µM |  |
| [C-]#[O+].[C-]#[O+].[C-]#[O+].[Mo].c1ccc(P(CC[PH+](CC[PH+](CC[PH+](c2ccccc2)c2ccccc2)c2ccccc2)c2ccccc2)c2ccccc2)cc1 (stereo not given) | > 6.17 | > 6.17 µM |  |
| O=C(CNC(=O)OCc1ccccc1)NCCCCC(NC(=O)OCc1ccccc1)C(=O)O (stereo not given) | > 200 | > 200 µM |  |
| CC(C)=CCCC1(C)C2COC(=O)C21 (stereo not given) | > 200 | 70.8 µM and 15.1 µM |  |
| Cc1cc2c(c(C(N)=O)c1C)-c1cccc(Cl)c1C2=O |  |  | inactive |
| O=C1/C(=C/c2cccc(F)c2)CCCc2ccccc21 | > 200 | 19.5 µM |  |
| CC(=O)OCCn1c(Cc2ccc(Cl)cc2)nn(C(C)=O)c1=O | > 200 | > 200 µM |  |
| Cc1c(CCCl)c(Cl)n2c(nc3ccccc32)c1C#N | > 33.9 | 0.537 µM |  |
| OC1CCCC1C(O)(C(F)(F)F)C(F)(F)F (stereo not given) |  |  | inactive |

| Compound | EC50 [µM] | IC50 | outcome |
| --- | --- | --- | --- |
| NS(=O)(=O)c1ccc(NC(=S)/N=C/c2c(O)c3ccccc3oc2=O)cc1 | > 200 | 110 µM |  |
| Clc1ccc(Cc2nc3ccccc3s2)c(Cl)c1 | > 33.9 | 26.3 µM |  |
| Nc1cc(N)[nH]c(=S)n1 |  |  | inactive |
| COc1cc2c(cc1OC)C[N+]1(C)CCc3cc(OC)c(OC)cc3C1C2 (stereo not given) | > 501 | > 501 µM |  |
| CC1(C)OCC(CO)(Nc2nc(N3CC3)nc(N3CC3)n2)CO1 | > 200 | 0.741 µM |  |
| Nc1cc(N2CCOCC2)nc(=O)n1-c1ccccc1 | > 200 | > 200 µM |  |
| CC(C)n1c(=O)c2nn3c(=O)n(C(C)C)c(=O)c3nn2c1=O | > 200 | > 200 µM |  |
| CC(=O)OCC1OC(n2c(-c3ccc(N)cc3)cc(-c3ccco3)c(C#N)c2=O)C(OC(C)=O)C(OC(C)=O)C1OC(C)=O (stereo not given) | > 11.7 | > 11.7 µM |  |
| CC[Si](CC)(CC)OC(C#N)c1ccc2c(c1)OCO2 (stereo not given) |  |  | inactive |
| Cc1cn2c(=O)c3ncn(C4OC(CO)C(O)C4O)c3n(C)c2n1 (stereo not given) |  |  | inactive |
| CC(=O)c1ccc(NC(=O)/C(CC(=O)c2sc(-c3cccnc3)nc2C)=N/NC(N)=O)cc1 | > 21.4 | > 21.4 µM |  |
| COc1ccc2c(c1)Oc1cc(O)ccc1[C@@H]2c1ccccc1C(=O)NC(C)c1ccccc1 (stereo not given in full) | > 15.8 | 14.5 µM |  |
| COCN1C(=O)[C@@H]2CCCN2C(=O)c2ccc(N)cc21 | > 200 | > 200 µM |  |
| Cc1cc(Cl)cc2c1NC(=O)C2(O)C(C)C(=O)c1ccc(Cl)cc1 (stereo not given) | > 186 | 123 µM |  |
| O=C1NCC2=C1CCC1c3ccccc3CCN21 (stereo not given) | > 200 | > 200 µM |  |
| Nc1cnn2cnnc2c1 | > 200 | > 200 µM |  |
| CC(C)(C#N)C(C)(C)SSC(C)(C)C(C)(C)C#N | > 178 | > 178 µM |  |
| Cn1c(N)cc[n+](C2CCC(CO)O2)c1=O (stereo not given) (tested in a mixture with another compound) | 9.12 | 708 µM |  |
| CN(C)c1nc2n(CCO)c(-c3ccccc3)c(-c3ccccc3)nc-2c(=O)n1 | 30.9 | > 100 µM |  |
| CCC[N+]12CC=C(CO)C1C(O)CC2 (stereo not given) | > 891 | > 891 µM |  |
| CCOc1ccc(N=Nc2c(-c3ccccc3)nn(C(=O)CC(=O)Nc3ccccc3Cl)c2-c2ccccc2)cc1 | > 33.1 | > 33.1 µM |  |
